{
  "source": "patent US6761904B2",
  "about": "(Nycomed Austria GmbH, priority 2000, dated 2004)",
  "key": {"[1]": {"assay": "Plasma pharmacokinetics of midodrine and desglymidodrine after oral intake / colon absorption (general findings and presumptions)", "type": "in vivo, human", "conditions": "for Cmax: 7.5 mg, presumption made in estimating the target profile, obtained after tablet administration"}, "[2]": {"conditions": "after oral administration of a single dose; cited from earlier work"}},
  "data": [
    {"smiles": "COc1ccc(OC)c(C(O)CN)c1", "note": "(stereo not drawn) [desglymidodrine, alpha-(aminomethyl)-2,5-dimethoxy-benzenemethanol]", "values": [
      {"measurement": "tmax of desglymidodrine after colon absorption", "setting": "[1]; after application to the colon", "result": "approximately 3 hours"},
      {"measurement": "Cmax", "setting": "[1]; human, in vivo", "result": "~3.75", "unit": "ng/mL"},
      {"measurement": "Tmax", "setting": "[1]; human, in vivo, po", "result": "1 to 2", "unit": "h"}
    ]},
    {"smiles": "COc1ccc(OC)c(C(O)CNC(=O)CN)c1", "note": "(stereo not shown) [midodrine, 2-amino-N-[2-(2,5-dimethoxyphenyl)-2-hydroxyethyl]-acetamide]", "values": [
      {"measurement": "Cmax", "setting": "[1]; human, plasma, oral", "result": "~11", "unit": "ng/mL"},
      {"measurement": "tmax after oral intake of midodrine", "setting": "[1]; midodrine itself in plasma", "result": "about 30 min"},
      {"measurement": "persistence of the pressor effect", "setting": "[2]", "result": "3 to 6", "unit": "h"},
      {"measurement": "time until the pressor effect is manifest", "setting": "[2]", "result": "20 to 90", "unit": "min"}
    ]}
  ]
}
